Assay [1] deals with T1, Tau-tubulin kinase 1 (Homo sapiens, UniProt Q5TCY1). The experiment in a line: Binding affinity to phosphorylated TTBK1 (unknown origin) assessed as association rate constant by SPR analysis. For orientation: In SPR one partner is held on a chip, and binding of the other changes the refractive index at the surface.
The nature of assay [2]: Inhibition of FTK (unknown origin). More on the design: species or system Homo sapiens.
Assay [3] has as its target T1, Tau-tubulin kinase 1. Kind of assay: Binding affinity to phosphorylated TTBK1 (unknown origin) by SPR analysis.

From ChEMBL document CHEMBL4325845, “Tau Tubulin Kinase 1 (TTBK1), a new player in the fight against neurodegenerative diseases” (Eur J Med Chem, 2019) come the findings set out here.

What is called IC50 is the concentration needed to halve the response being measured. A high value points to weaker potency in that assay. One may read the Kd as the free concentration of one partner at which half of the binding sites on the other are occupied at equilibrium, for simple one-to-one binding.

T1 sequence (Q5TCY1 whole entry): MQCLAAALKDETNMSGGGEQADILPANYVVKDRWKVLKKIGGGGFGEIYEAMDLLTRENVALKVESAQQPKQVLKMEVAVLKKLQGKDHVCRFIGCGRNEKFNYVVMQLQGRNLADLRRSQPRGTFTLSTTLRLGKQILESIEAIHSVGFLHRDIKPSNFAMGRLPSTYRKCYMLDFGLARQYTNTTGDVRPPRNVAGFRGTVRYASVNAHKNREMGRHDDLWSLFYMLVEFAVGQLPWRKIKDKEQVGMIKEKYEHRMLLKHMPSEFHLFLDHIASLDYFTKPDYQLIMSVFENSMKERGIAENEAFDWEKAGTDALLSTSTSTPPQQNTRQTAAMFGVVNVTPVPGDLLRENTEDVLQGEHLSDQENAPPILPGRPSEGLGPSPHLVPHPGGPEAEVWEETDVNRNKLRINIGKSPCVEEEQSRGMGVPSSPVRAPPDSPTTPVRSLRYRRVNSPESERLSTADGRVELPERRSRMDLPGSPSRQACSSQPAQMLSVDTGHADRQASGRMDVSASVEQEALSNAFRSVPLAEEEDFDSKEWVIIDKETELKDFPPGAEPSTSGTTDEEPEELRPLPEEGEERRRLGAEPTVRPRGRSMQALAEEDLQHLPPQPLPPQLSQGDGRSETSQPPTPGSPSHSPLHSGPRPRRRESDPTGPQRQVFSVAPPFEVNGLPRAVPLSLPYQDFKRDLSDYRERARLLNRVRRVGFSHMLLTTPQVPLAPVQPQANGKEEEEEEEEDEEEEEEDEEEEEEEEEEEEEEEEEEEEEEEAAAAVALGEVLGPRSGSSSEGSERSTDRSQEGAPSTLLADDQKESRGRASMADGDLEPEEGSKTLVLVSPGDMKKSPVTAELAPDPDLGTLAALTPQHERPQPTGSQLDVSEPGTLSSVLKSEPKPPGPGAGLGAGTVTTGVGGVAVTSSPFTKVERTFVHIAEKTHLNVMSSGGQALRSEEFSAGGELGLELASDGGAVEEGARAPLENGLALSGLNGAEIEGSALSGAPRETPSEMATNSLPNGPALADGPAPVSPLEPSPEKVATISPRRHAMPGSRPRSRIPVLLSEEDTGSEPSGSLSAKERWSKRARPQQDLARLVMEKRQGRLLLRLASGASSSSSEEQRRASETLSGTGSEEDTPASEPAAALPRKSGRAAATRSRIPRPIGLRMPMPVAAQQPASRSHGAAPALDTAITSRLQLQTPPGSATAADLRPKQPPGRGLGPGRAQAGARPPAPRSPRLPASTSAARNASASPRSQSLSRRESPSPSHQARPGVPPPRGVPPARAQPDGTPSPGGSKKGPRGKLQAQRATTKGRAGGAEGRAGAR

Turning to `COc1cc2ncnc(Nc3cccc(O)c3)c2cc1OC`, in assay [1], the K turned out to be 6.8 ×10⁶ /s. This molecule also showed an IC50 in assay [2] of 11 µM.

`COC(=O)c1cc(Nc2ncnc3[nH]ccc23)ccc1Br` showed a Kd in assay [3] of 4.1 µM.
